# Legend:
# [1] = biological target: T1, recombinant human secreted phospholipase A2 (Homo sapiens, UniProt P14555); assay: Chromogenic assay of recombinant human secreted phospholipase A2 inhibition; type: biochemical; settings: diheptanoyl thio-PC substrate, pH 7.5, 40° C., 30 minutes, absorbance at 405 nanometers; read-out: Inhibition of human secreted PLA2 IC50 ± mean deviation (3-4 tests)
# T1 sequence (P14555 21-144): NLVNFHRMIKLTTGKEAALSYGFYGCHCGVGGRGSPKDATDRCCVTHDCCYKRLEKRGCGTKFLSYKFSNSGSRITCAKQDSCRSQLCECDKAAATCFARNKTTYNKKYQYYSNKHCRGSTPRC
# Source text: The following chromogenic assay procedure was used to identify and evaluate inhibitors of recombinant human secreted phospholipase A2. The assay described herein has been adapted for high volume screening using 96 well microtiter plates. A general description of this assay method is found in the article, “Analysis of Human Synovial Fluid Phospholipase A2 on Short Chain Phosphatidylcholine-Mixed Micelles: Development of a Spectrophotometric Assay Suitable for a Microtiterplate Reader”, by Laure J. Reynolds, Lori L. Hughes, and Edward A Dennis, Analytical Biochemistry, 204, pp. 190-197, 1992 (the disclosure of which is incorporated herein by reference):
# Adjust pH to 4.5 with acetic acid […]
# A measured volume of racemic dipheptanoyl thio PC supplied in chloroform at a concentration of 100 mg/ml is taken to dryness and redissolved in 10 millimolar […]
# 5. Read absorbance of wells at 405 nanometers with an automatic plate reader.
# All compounds were tested in triplicate. […] Compounds initially found to be active were reassayed to confirm their activity and, if sufficiently active, IC50 values were determined. […] In all cases, % inhibition measured at 405 nanometers generated by enzyme reactions containing inhibitors relative to the uninhibited control reactions was determined. […] IC50 values were determined by plotting log concentration versus inhibition values in the range from 10-90% inhibition.
structure (smiles),measurement,setting,value
"CCc1c(C(=O)C(N)=O)c2ccsc2n1Cc1ccccc1 [Example 1, 2-(6-Benzyl-5-ethyl-6H-thieno[2,3-b]pyrrol-4-yl)-2-oxoacetamide]",IC50,[1],5.5 µM
same,melting point,,169 to 172 °C
